This is an account of results in DBAASP.

In brackets after ≈: the same amount, converted by molar mass. A value given as a limit tells only on which side of the number the result lay.

Usually MIC stands for the lowest concentration found to suppress growth. Low values mean greater potency, high ones weaker potency.

Among the test systems are Acinetobacter baumannii; Escherichia coli D21; Botrytis cinerea; Alternaria alternata; Cladosporium herbarum; Glaesserella parasuis; Escherichia coli HB101.
What all share (experiment): ≥ marks a high value that may be exact or a test limit, other limits are often not marked, values filed in µg/mL are converted to µM
Experiment [1] relates to Acinetobacter baumannii KCTC 2508.
Experiment [2] has as its system Fusarium oxysporum DSM Z62306.
The test system of experiment [3] is Botrytis cinerea DSM Z877.
Experiment [4] concerns Pseudomonas aeruginosa ATCC 27853.
For experiment [5], the system named is Escherichia coli ATCC 25922.
Experiment [6] has as its system Staphylococcus aureus II ATCC 6538P.
Experiment [7] concerns Enterococcus faecalis ATCC 19433.
Experiment [8] has as its system Acinetobacter baumannii ATCC 19606.
Experiment [9] relates to Enterobacter cloacae ATCC 49141.
The test system of experiment [10] is Pseudomonas corrugata DSM 7228.
Experiment [11] concerns Clavibacter michiganensis subsp. michiganensis DSM 46294.
Experiment [12] relates to Xanthomonas vesicatoria DSM 50861.
The test system of experiment [13] is Pseudomonas syringae pv. syringae DSM 10604.
The test system of experiment [14] is Pseudomonas syringae pv. tomato DC3000.
Experiment [15] deals with Pectobacterium carotovorum subsp. carotovorum DSM 30168.
The subject of experiment [16] is Glaesserella parasuis ATCC 19417.
In experiment [17] the test system is Candida albicans ATCC 37092.
Experiment [18] concerns Staphylococcus aureus ATCC 29213.
Experiment [19] concerns Staphylococcus aureus FDA 209P.
The subject of experiment [20] is Escherichia coli IFO 3972.
Experiment [21] concerns Corynebacterium glutamicum ATCC 13032.
Experiment [22] deals with Staphylococcus aureus ATCC 9144.

For `CC[C@H](C)[C@H](NC(=O)CNC(=O)[C@H](CC(C)C)NC(=O)[C@H](CCCN=C(N)N)NC(=O)[C@H](CCCCN)NC(=O)[C@H](Cc1ccccc1)NC(=O)[C@@H](NC(=O)[C@H](CCCCN)NC(=O)[C@H](CCCCN)NC(=O)[C@H](C)N)C(C)C)C(=O)NCC(=O)N[C@@H](CCCCN)C(=O)N[C@@H](Cc1ccccc1)C(=O)N[C@@H](CC(C)C)C(=O)N[C@@H](Cc1cnc[nH]1)C(=O)N[C@@H](CO)C(=O)N[C@@H](C)C(=O)N[C@@H](CCCCN)C(=O)N[C@@H](CCCCN)C(=O)N[C@@H](Cc1ccccc1)C(N)=O` [AKKVFKRLGIGKFLHSAKKF], the MIC (against Acinetobacter baumannii; in [1]) was 6.25 µM (≈ 14.4 µg/mL) each time.
Consider `CSCC[C@H](NC(=O)[C@@H](NC(=O)[C@@H](NC(=O)[C@H](CCCCN)NC(=O)[C@H](C)N)C(C)C)[C@@H](C)O)C(=O)N[C@H](C(=O)N[C@@H](CS)C(=O)N[C@@H](CO)C(=O)N[C@@H](C)C(=O)N[C@@H](CO)C(=O)O)[C@@H](C)O` [AKVTMTCSAS], for which the MIC in experiment [2] is not below 100 µM; in [3] it was not below 120 µM.
Regarding `CC(C)C[C@H](NC(=O)[C@H](Cc1cnc[nH]1)NC(=O)[C@H](Cc1cnc[nH]1)NC(=O)[C@H](CC(C)C)NC(=O)[C@H](CC(C)C)NC(=O)[C@H](Cc1cnc[nH]1)NC(=O)[C@H](Cc1cnc[nH]1)NC(=O)[C@H](CC(C)C)NC(=O)[C@H](CC(C)C)NC(=O)[C@H](Cc1cnc[nH]1)NC(=O)[C@H](Cc1cnc[nH]1)NC(=O)[C@H](CC(C)C)NC(=O)[C@H](C)NC(=O)[C@H](CC(=O)O)NC(=O)[C@@H](N)CC(=O)O)C(=O)O` [DDALHHLLHHLLHHL], the MIC is 100 µM (≈ 182 µg/mL) in [4]; more than 100 µM in [5]; not below 100 µM in experiment [6]; not below 100 µM in [7]; not below 100 µM in the experiment with Escherichia coli D21; more than 100 µM in [8]. Besides, in experiment [9], the MIC was not below 100 µM.
For `CC(C)C[C@H](NC(=O)[C@H](CCCCN)NC(=O)[C@H](Cc1cnc[nH]1)NC(=O)[C@H](CCCCN)NC(=O)[C@H](CC(C)C)NC(=O)[C@H](C)NC(=O)[C@H](CCCCN)NC(=O)[C@H](C)NC(=O)[C@H](CC(C)C)NC(=O)[C@H](C)NC(=O)[C@H](CCCN=C(N)N)NC(=O)[C@@H](N)CC(C)C)C(N)=O` [LRALAKALKHKL], the MIC against Botrytis cinerea was not below 73.4 µM; with Alternaria alternata, not below 73.4 µM; in experiment [10], 7.34 µM (≈ 9.99 µg/mL); in experiment [11] it was 29.4 µM (≈ 40 µg/mL); in experiment [12], 29.4 µM (≈ 40 µg/mL); in experiment [13], 29.4 µM (≈ 40 µg/mL). Besides, the results for the MIC (in experiment [14]; in experiment [15]; in the experiment with Cladosporium herbarum) were 3.67 µM (≈ 5 µg/mL), 29.4 µM (≈ 40 µg/mL) and 14.7 µM (≈ 20 µg/mL), respectively.
`C[C@H](NC(=O)[C@H](Cc1ccccc1)NC(=O)[C@H](CS)NC(=O)[C@H](Cc1c[nH]c2ccccc12)NC(=O)[C@H](CCCN=C(N)N)NC(=O)[C@@H](N)CC(N)=O)C(=O)NCC(=O)N[C@@H](CC(=O)O)C(=O)N[C@@H](CC(=O)O)C(=O)O` [NRWCFAGDD]: the minimal inhibitory concentration (MIC) against Glaesserella parasuis is 13.1 µM (≈ 14.1 µg/mL); in experiment [16], 18.5 µM (≈ 20 µg/mL).
For the compound `CC(C)C[C@H](NC(=O)[C@@H]1CCCN1C(=O)[C@H](CCCN=C(N)N)NC(=O)[C@@H]1CCCN1)C(=O)N1CCC[C@H]1C(=O)N[C@@H](Cc1ccccc1)C(=O)N1CCC[C@H]1C(=O)N[C@@H](CCCN=C(N)N)C(=O)N1CCC[C@H]1C(=O)NCC(=O)O` [PRPLPFPRPG], the MIC in experiment [17] is not below 500 µM; in [5], more than 500 µM; in [18], more than 500 µM.
As to `CC(C)C[C@H](NC(=O)[C@H](Cc1c[nH]c2ccccc12)NC(=O)[C@@H](NC(=O)[C@H](Cc1c[nH]c2ccccc12)NC(=O)[C@H](Cc1cnc[nH]1)NC(=O)[C@@H](N)Cc1c[nH]c2ccccc12)[C@@H](C)O)C(=O)O` [WHWTWL], the MIC in experiment [19] and in [20] was not below 500 µM in each case.
Take `CC[C@H](C)[C@H](NC(=O)[C@@H]1CCCN1C(=O)[C@H](CCCCN)NC(=O)[C@@H]1CCCN1C(=O)[C@H](CCCN=C(N)N)NC(=O)CNC(=O)[C@@H]1CCCN1C(=O)[C@H](Cc1ccccc1)NC(=O)[C@@H]1CCCN1C(=O)[C@H](CCCN=C(N)N)NC(=O)[C@@H]1CCCN1C(=O)[C@H](CCCN=C(N)N)NC(=O)CNC(=O)[C@@H]1CCCN1C(=O)[C@H](CO)NC(=O)[C@@H]1CCCN1C(=O)[C@@H](N)Cc1c[nH]c2ccccc12)C(=O)N[C@@H](Cc1ccccc1)C(=O)N[C@@H](CCCN=C(N)N)C(=O)N1CCC[C@H]1C(=O)N[C@@H](CCCN=C(N)N)C(=O)O` [WPSPGRPRPFPGRPKPIFRPR]: the MIC in [4] is 100 µM (≈ 250 µg/mL); in [21] it was 3.1 µM (≈ 7.75 µg/mL); in experiment [5], 35.4 µM (≈ 88.4 µg/mL); in [22], not below 100 µM; with Escherichia coli HB101 it was 12.5 µM (≈ 31.2 µg/mL).
